This note sets out measurements from PubChem BioAssay (NCI).

Values joined by “and” are separate entries in the source; they are usually repeats but may differ in a detail not shown here. Equal entries are not always repeated.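 In this assay, cells in 96-well plates receive the compound at five concentrations for 48 hours. Endpoints are linearly interpolated between the surrounding concentrations. The concentration for 50% growth inhibition is given as GI50. At the TGI there is no net growth.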 A value given as a limit tells only on which side of the number the result lay.

Test systems include M14 melanoma; SW-620 colon; DLD-1 colon; EKVX NSCLC; COLO 205 colon; OVCAR-3 ovarian; M19-MEL melanoma; HCC-2998 colon; SR leukemia; PC-3 prostate.
Holding throughout (assay): NCI-60 cell line screen, 48 h

With `COc1ccc2c3c(c(C(=O)O)oc13)CCC2`, the TGI with M14 melanoma, with SW-620 colon, with DLD-1 colon, in the test on EKVX NSCLC, in the test on COLO 205 colon and in the test with OVCAR-3 ovarian was above 100 µM throughout. Further, the TGI with M19-MEL melanoma, in the test with HCC-2998 colon and in the test on SR leukemia was above 100 µM throughout.

As to `Cc1cc2c(c3nocc13)C(=O)c1ccccc1C2=O`, the TGI in the test with M14 melanoma, in the test with SW-620 colon, with DLD-1 colon, in the test on EKVX NSCLC, in the test on COLO 205 colon and with OVCAR-3 ovarian was above 100 µM in each case. The TGI in the test on M19-MEL melanoma and with HCC-2998 colon was above 100 µM each time.

On to `CN(C)CCNC(=O)c1cccc2nc3ccc4cccnc4c3nc12`, for which the TGI was 3.03 µM with M14 melanoma; 4.92 µM in the test with SW-620 colon; 8.36 µM in the test on DLD-1 colon; 2.07 µM in the test on EKVX NSCLC; 1.55 µM in the test with COLO 205 colon; 4.33 µM with OVCAR-3 ovarian. For the same compound, the figures for the TGI in the test on M19-MEL melanoma and in the test on HCC-2998 colon were 1.62 µM and 2.12 µM, respectively.

`CC(C)=O.O=C([O-])C(F)(F)F.O=C([O-])C(F)(F)F.O=C([O-])C(F)(F)F.O=C([O-])C(F)(F)F.[Rh+2].[Rh+2]`: the GI50 in the test on M14 melanoma is above 100 µM; in the test on SW-620 colon, 65.2 µM; in the test with DLD-1 colon, above 100 µM; with EKVX NSCLC, 47.2 µM; with COLO 205 colon it was 96.1 µM; in the test on OVCAR-3 ovarian it was above 100 µM. Further, the GI50 in the test with M19-MEL melanoma is 47.4 µM; with HCC-2998 colon, above 100 µM; with SR leukemia, 22.2 µM. For the same compound, the TGI with M14 melanoma, in the test with SW-620 colon, in the test on DLD-1 colon, in the test on EKVX NSCLC, with COLO 205 colon and in the test with OVCAR-3 ovarian was above 100 µM each time. The TGI with M19-MEL melanoma, in the test with HCC-2998 colon and in the test on SR leukemia was above 100 µM each time.

As for `COC1CC(C)C(OC)c2cc(O)cc(c2O)NC(=O)/C(C)=C/C=C\C(C)C(OC(N)=O)/C(C)=C\C(C)C1OC` (stereo not given), the GI50 in the test on PC-3 prostate is 0.201 µM and 0.44 µM; in the test with M14 melanoma it was 0.267 µM and 1.27 µM; in the test with SW-620 colon, 0.0544 µM and 0.0649 µM; in the test on DLD-1 colon it was 4.65 µM and 5.28 µM; in the test on EKVX NSCLC it was 7.95 µM; with COLO 205 colon it was 0.0414 µM and 0.0785 µM. Besides, the GI50 in the test with OVCAR-3 ovarian was 0.938 µM and 0.552 µM and 0.186 µM; in the test on M19-MEL melanoma it was 0.498 µM; in the test with HCC-2998 colon, 0.318 µM; in the test on SR leukemia, 0.191 µM and 0.11 µM. For the same compound, the TGI was 16.4 µM and 8.51 µM with PC-3 prostate; 18.7 µM and 10.5 µM with M14 melanoma; 3.7 µM and 3.97 µM in the test with SW-620 colon; 10.5 µM and 11.2 µM in the test on DLD-1 colon; 25 µM and 22.9 µM in the test on EKVX NSCLC; 7.12 µM and 2.8 µM with COLO 205 colon. Further, the TGI in the test on OVCAR-3 ovarian was 5.31 µM and 7.4 µM; in the test with M19-MEL melanoma it was 15.2 µM and 10.7 µM; in the test with HCC-2998 colon, 9.78 µM and 11.3 µM; in the test on SR leukemia it was 2 µM and 6.31 µM.

With `Cc1cc(C)nc(NS(=O)(=O)c2ccc(Nc3c4ccccc4nc4c(C(=O)Nc5ccc(S(=O)(=O)Nc6cc(C)on6)cc5)ccc(Cl)c34)cc2)n1`, the TGI is 44 µM with M14 melanoma; 33.3 µM in the test on DLD-1 colon; 62.5 µM in the test with EKVX NSCLC; 31.3 µM in the test with OVCAR-3 ovarian; above 100 µM in the test on M19-MEL melanoma; 32.6 µM in the test with HCC-2998 colon. For the same compound, the TGI in the test on SR leukemia was 53.8 µM.

`S=c1nc(C(c2ccccc2)c2ccccc2)[nH][nH]1`: the TGI with SW-620 colon, in the test on DLD-1 colon, with EKVX NSCLC, in the test on COLO 205 colon, with OVCAR-3 ovarian and in the test on M19-MEL melanoma was above 100 µM throughout. Further, in the test with HCC-2998 colon, the TGI was above 100 µM.

`O=c1/c(=C/c2c(O)ccc3ccccc23)sc2nc3ccccc3n12`: the TGI with M14 melanoma, in the test on SW-620 colon, with DLD-1 colon, with EKVX NSCLC, with COLO 205 colon and in the test on OVCAR-3 ovarian was above 100 µM each time. The TGI in the test with M19-MEL melanoma and with HCC-2998 colon was above 100 µM throughout.

Consider `Cc1cc2c(cc1C)[n+](=O)c(C(=O)/C=C/c1ccc3c(c1)OCO3)c(C)n2[O-]`, for which the TGI in the test on PC-3 prostate, in the test on M14 melanoma, with SW-620 colon, with DLD-1 colon, in the test with EKVX NSCLC and in the test with COLO 205 colon was above 100 µM in each case. In addition, the TGI in the test with OVCAR-3 ovarian, in the test with M19-MEL melanoma, with HCC-2998 colon and in the test with SR leukemia was above 100 µM in each case.

With `CC(CN1CC(=O)NC(=O)C1)N1CC(=O)NC(=O)C1` (stereo not given), the TGI with PC-3 prostate was above 750 µM; in the test on M14 melanoma it was above 750 µM; in the test on SW-620 colon it was above 750 µM; in the test with DLD-1 colon, above 750 µM; in the test with EKVX NSCLC it was above 750 µM; in the test with COLO 205 colon, 443 µM. The TGI in the test with OVCAR-3 ovarian is 701 µM; in the test on M19-MEL melanoma it was 745 µM; in the test with HCC-2998 colon, above 750 µM; with SR leukemia, above 750 µM. Moreover, in the test with COLO 205 colon, the GI50 was 25.3 µM.

`O=C1C=CC(=O)C2C1Cc1ccccc1C2c1ccccc1` (stereo not given): the TGI in the test on M14 melanoma is above 100 µM; in the test on SW-620 colon, 71 µM; in the test with DLD-1 colon, above 100 µM; in the test on EKVX NSCLC, 72.9 µM; in the test on COLO 205 colon it was 35.5 µM; with OVCAR-3 ovarian, 88.3 µM. Further, the TGI in the test on M19-MEL melanoma is above 100 µM; in the test on HCC-2998 colon, 60 µM; in the test with SR leukemia it was 59.1 µM.

For the compound `Cn1cnc([N+](=O)[O-])c1Sc1nnnn1C`, the TGI turned out to be 28.4 µM in the test on M14 melanoma; 26 µM in the test on SW-620 colon; 29.5 µM with DLD-1 colon; 40.8 µM with EKVX NSCLC; 25.3 µM in the test with COLO 205 colon; 29.4 µM in the test on OVCAR-3 ovarian. For the same compound, the TGI in the test with M19-MEL melanoma was found to be 29.9 µM; in the test with HCC-2998 colon, 51.2 µM; with SR leukemia it was 28.2 µM.

As for `CSC(=Nc1ccccc1Cl)NC(=O)c1ccc(Br)cc1`, the TGI with M14 melanoma, in the test on SW-620 colon, in the test on DLD-1 colon, in the test on EKVX NSCLC, in the test with COLO 205 colon and in the test with OVCAR-3 ovarian was above 100 µM in each case. Further, the TGI in the test on M19-MEL melanoma, in the test on HCC-2998 colon and in the test with SR leukemia was above 100 µM each time.

As for `Cc1ccc(NC(=O)C(=O)C(C(=O)c2ccc3ccccc3c2)C2OC(=O)c3ccccc32)c(C)c1` (stereo not given), the TGI stood at 36.9 µM in the test with M14 melanoma; 21.6 µM in the test with SW-620 colon; 26.5 µM with DLD-1 colon; 52 µM with EKVX NSCLC; 25.2 µM with COLO 205 colon; 31.5 µM in the test with OVCAR-3 ovarian. Moreover, the TGI in the test on M19-MEL melanoma turned out to be 22.6 µM; in the test on HCC-2998 colon, 21.1 µM.

On to `O=C1OC(c2ccccc2)(c2ccccc2)c2ccc3ccc(F)cc3c21`, for which the TGI in the test with M14 melanoma, with SW-620 colon, in the test on DLD-1 colon, with EKVX NSCLC, with COLO 205 colon and in the test on OVCAR-3 ovarian was above 100 µM in each case. Moreover, the TGI with M19-MEL melanoma, in the test on HCC-2998 colon and in the test with SR leukemia was above 100 µM in each case.
